From ChEMBL document CHEMBL4476867, “Hydroxy formamide derivatives and their use” (2016) come the findings set out here.

Molecules are shown by their SMILES.

Assay [1] in a line: Reduction in PICP levels in human cardiac fibroblasts incubated for 24 to 48 hrs by ELISA. It counts as functional. Put shortly: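 Human cardiac fibroblasts (passage 6 or below) were seeded at 10,000 to 15,000 cells per well in 96-well plates. The next day they were treated in ficoll crowding EMEM with 100 μM ascorbic acid and under 0.3% DMSO, for 24 to 48 hr at 37° C. Procollagen I C-terminal propeptide in the medium was measured with a Quidel ELISA. IC50 came from fitting levels relative to untreated controls to a log(inhibitor)-response equation in GraphPad Prism.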
(An ELISA detects its analyte on a solid surface through an enzyme-linked reagent.)

Assay [2] addresses Tolloid-like protein 1 (Homo sapiens, UniProt O43897, I156V/N221S/V284A). Put plainly: Inhibition of recombinant human TLL1 I156V/N221S/V284A mutant expressed in CHOE1A cells pre-incubated for 10 mins before promyostatin peptide substrate addition and measured after 60 mins by FRET based assay. It counts as cell-based.
The target of assay [3] is T1, Bone morphogenetic protein 1 (Homo sapiens, UniProt P13497).
T1 sequence (P13497 whole entry): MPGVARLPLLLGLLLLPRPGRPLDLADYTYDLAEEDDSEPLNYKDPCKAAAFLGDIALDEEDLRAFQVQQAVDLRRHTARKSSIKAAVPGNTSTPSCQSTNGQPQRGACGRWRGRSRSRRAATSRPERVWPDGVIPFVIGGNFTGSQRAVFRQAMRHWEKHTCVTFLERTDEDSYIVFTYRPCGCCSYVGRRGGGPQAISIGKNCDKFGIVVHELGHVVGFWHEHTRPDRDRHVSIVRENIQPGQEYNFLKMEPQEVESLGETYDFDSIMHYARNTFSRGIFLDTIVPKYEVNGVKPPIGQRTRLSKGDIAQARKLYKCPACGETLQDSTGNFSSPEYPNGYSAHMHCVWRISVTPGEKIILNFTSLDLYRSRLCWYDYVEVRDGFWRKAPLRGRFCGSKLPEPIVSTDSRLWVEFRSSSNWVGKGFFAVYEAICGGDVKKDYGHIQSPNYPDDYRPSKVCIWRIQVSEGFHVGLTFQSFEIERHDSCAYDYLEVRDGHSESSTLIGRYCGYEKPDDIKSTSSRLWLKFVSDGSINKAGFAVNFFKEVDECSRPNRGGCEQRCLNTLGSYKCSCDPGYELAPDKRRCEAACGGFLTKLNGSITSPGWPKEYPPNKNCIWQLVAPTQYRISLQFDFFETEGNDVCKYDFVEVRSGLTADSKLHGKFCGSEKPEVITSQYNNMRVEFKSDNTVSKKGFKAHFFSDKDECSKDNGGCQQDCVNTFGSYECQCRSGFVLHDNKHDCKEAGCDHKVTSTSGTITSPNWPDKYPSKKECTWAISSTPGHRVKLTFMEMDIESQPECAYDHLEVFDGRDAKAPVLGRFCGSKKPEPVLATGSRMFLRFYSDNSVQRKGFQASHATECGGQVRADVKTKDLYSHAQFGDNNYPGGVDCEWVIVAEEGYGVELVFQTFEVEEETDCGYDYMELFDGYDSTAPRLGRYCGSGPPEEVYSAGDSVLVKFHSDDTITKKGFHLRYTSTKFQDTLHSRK
As to the kind of experiment: Inhibition of C-terminal FLAG-6x-His epitope tagged and N-terminal human RAGE signal sequence tagged human BMP1 (23 to 721 amino acids) expressed in CHO-E1 cells pre-incubated for 10 mins before promyostatin peptide substrate addition and measured after 30 mins using 50 nM BMP1 by FRET based assay. The assay is classed as cell-based.

Assay [4] has as its target T1, Bone morphogenetic protein 1. As to the kind of experiment: Inhibition of C-terminal FLAG-6x-His epitope tagged and N-terminal human RAGE signal sequence tagged human BMP1 (23 to 721 amino acids) expressed in CHO-E1 cells pre-incubated for 10 mins before promyostatin peptide substrate addition and measured after 60 mins using 0.5 nM BMP1 by FRET based assay. It counts as cell-based.

Assay [5] deals with T2, Tolloid-like protein 2 (Homo sapiens, UniProt Q9Y6L7).
T2 sequence (Q9Y6L7 whole entry): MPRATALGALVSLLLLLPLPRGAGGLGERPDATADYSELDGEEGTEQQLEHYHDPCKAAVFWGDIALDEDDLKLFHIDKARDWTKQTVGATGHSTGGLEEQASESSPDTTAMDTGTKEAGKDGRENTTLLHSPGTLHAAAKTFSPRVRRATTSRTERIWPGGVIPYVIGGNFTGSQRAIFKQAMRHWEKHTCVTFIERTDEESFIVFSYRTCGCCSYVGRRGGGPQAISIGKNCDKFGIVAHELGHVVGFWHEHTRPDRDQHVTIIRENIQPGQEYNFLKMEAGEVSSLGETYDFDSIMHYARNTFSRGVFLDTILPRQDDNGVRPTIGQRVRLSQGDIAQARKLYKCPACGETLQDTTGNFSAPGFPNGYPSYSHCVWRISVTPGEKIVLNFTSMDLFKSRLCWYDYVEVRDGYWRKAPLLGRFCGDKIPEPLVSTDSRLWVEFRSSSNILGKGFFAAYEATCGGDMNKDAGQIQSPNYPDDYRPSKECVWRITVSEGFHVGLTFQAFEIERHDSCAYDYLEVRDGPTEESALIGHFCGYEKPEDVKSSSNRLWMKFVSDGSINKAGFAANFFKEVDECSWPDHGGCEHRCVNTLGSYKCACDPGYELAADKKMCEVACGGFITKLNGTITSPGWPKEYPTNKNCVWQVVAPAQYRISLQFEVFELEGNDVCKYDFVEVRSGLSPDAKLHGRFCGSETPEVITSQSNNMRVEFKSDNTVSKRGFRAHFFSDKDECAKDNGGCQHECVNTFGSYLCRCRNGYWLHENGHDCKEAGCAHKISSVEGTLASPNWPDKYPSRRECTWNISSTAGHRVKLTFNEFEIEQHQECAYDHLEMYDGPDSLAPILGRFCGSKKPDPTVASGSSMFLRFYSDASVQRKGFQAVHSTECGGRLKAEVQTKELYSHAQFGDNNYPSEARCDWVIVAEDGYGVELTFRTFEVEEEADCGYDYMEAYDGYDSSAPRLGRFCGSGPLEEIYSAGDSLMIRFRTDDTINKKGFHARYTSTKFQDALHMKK
As to the kind of experiment: Inhibition of C-terminal Avi-6x-His epitope tagged and N-terminal human RAGE signal sequence tagged recombinant human TLL2 (26 to 1015 amino acids) expressed in CHOE1A cells incubated for 60 mins with promyostatin peptide substrate by FRET based assay. The assay is classed as cell-based.

Sequence of Tolloid-like protein 1 (O43897 148-1013 I156V/N221S/V284A limits assumed): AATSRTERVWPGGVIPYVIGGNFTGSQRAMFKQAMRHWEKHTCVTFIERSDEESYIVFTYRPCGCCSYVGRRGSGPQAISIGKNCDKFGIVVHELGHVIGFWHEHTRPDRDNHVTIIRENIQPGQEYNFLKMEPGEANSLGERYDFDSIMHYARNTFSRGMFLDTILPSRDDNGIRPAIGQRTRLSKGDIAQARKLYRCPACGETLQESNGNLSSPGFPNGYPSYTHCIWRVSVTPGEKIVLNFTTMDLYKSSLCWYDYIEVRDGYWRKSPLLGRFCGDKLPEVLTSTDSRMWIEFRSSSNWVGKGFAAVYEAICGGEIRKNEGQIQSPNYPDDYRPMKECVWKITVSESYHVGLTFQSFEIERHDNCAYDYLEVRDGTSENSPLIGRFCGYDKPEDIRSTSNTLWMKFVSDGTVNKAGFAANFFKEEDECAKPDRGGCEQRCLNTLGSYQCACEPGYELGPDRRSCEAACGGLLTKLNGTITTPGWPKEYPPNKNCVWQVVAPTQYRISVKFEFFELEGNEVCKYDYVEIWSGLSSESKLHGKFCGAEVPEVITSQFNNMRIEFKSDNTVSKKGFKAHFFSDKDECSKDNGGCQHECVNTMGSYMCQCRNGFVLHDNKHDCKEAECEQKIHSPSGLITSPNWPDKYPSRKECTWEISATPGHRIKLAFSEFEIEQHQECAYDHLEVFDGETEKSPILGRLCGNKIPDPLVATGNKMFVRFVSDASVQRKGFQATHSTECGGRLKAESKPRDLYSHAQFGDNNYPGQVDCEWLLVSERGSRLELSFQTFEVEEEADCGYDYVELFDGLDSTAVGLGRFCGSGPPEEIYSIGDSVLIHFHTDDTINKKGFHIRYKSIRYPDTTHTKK

Turning to `CCCCC[C@H](CN(O)C=O)C(=O)NCNC(=O)c1ccc(-c2ccc(C(=O)O)cc2)o1`, the half-maximal inhibitory concentration (IC50) was under 3980 nM in assay [1]; under 398 nM in assay [2]; under 200 nM in assay [3]; under 126 nM in assay [4]; under 794 nM in assay [5].

`CCCCC[C@H](CN(O)C=O)C(=O)NCNC(=O)c1ccc(-c2cccc(C(=O)O)c2)o1`: the IC50 was under 3980 nM in assay [1]; under 398 nM in assay [2]; under 200 nM in assay [3]; under 126 nM in assay [4]; under 794 nM in assay [5].

For the compound `CCCCC[C@@H](C(=O)NCNC(=O)c1ccc(-c2cc(OCC)cc(C(=O)NCC[N+](C)(C)C)c2)o1)[C@@H](CC)N(O)C=O`, the IC50 is under 3980 nM in assay [1]; under 398 nM in assay [2]; under 200 nM in assay [3]; under 126 nM in assay [4]; under 794 nM in assay [5].

With `CCCCC[C@@H](C(=O)NCNC(=O)c1ccc(-c2cccc(C(C)(C)C(=O)O)c2)o1)[C@@H](CC)N(O)C=O`, the IC50 is under 3980 nM in assay [1]; under 398 nM in assay [2]; under 200 nM in assay [3]; under 126 nM in assay [4]; under 794 nM in assay [5].

On to `CCCCC[C@@H](C(=O)NCNC(=O)c1ccc(-c2cccc(C(=O)N[C@@H](CC(=O)O)C(=O)O)c2)o1)[C@@H](CC)N(O)C=O`, for which the IC50 in assay [1] is under 3980 nM; in assay [2], under 398 nM; in assay [3], under 200 nM; in assay [4] it was under 126 nM; in assay [5], under 794 nM.

On to `CCCCC[C@@H](C(=O)NCNC(=O)c1ccc(-c2ccc(F)c(CC(=O)O)c2)o1)[C@@H](CC)N(O)C=O`, for which the IC50 was under 3980 nM in assay [1]; under 398 nM in assay [2]; under 200 nM in assay [3]; under 126 nM in assay [4]; under 794 nM in assay [5].

Take `CCCCC[C@H](CN(O)C=O)C(=O)NCNC(=O)c1ccc(-c2ccc(F)c(C(=O)O)c2)o1`: the IC50 was under 3980 nM in assay [1]; under 398 nM in assay [2]; under 200 nM in assay [3]; under 126 nM in assay [4]; under 794 nM in assay [5].

Consider `CCCCC[C@H](CN(O)C=O)C(=O)NCNC(=O)c1ccc(-c2ccc(F)c(C(=O)O)c2F)o1`, for which the IC50 in assay [1] is under 3980 nM; in assay [2], under 398 nM; in assay [3] it was under 200 nM; in assay [4], under 126 nM; in assay [5] it was under 794 nM.

Turning to `CCCCC[C@@H](C(=O)NCNC(=O)c1ccc(-c2cc(OCC)cc(C(=O)N(CC(=O)O)CC(=O)O)c2)o1)[C@@H](CC)N(O)C=O`, the IC50 in assay [1] was under 3980 nM; in assay [2], under 398 nM; in assay [3], under 200 nM; in assay [4], under 126 nM; in assay [5], under 794 nM.

Turning to `CCCCC[C@@H](C(=O)NCNC(=O)C1CCC(c2cc(OCC)cc(P(=O)(O)O)c2)O1)[C@@H](CC)N(O)C=O` (stereo not given in full), the IC50 in assay [1] was under 3980 nM; in assay [2], under 398 nM; in assay [3], under 200 nM; in assay [4], under 126 nM; in assay [5], under 794 nM.

Turning to `CCCCC[C@@H](C(=O)NCNC(=O)c1ccc(-c2cc(OCC)cc(C(=O)NCP(=O)(O)O)c2)o1)[C@@H](CC)N(O)C=O`, the IC50 was under 3980 nM in assay [1]; under 398 nM in assay [2]; under 200 nM in assay [3]; under 126 nM in assay [4]; under 794 nM in assay [5].

`CCCCC[C@@H](C(=O)NCNC(=O)c1ccc(-c2ccc(C(=O)O)cc2)o1)[C@@H](CC)N(O)C=O`: the IC50 is under 3980 nM in assay [1]; under 398 nM in assay [2]; under 200 nM in assay [3]; under 126 nM in assay [4]; under 794 nM in assay [5].

In the case of `CCCCC[C@H](CN(O)C=O)C(=O)NCNC(=O)c1ccc(-c2cccc(P(=O)(O)OC)c2)o1`, the IC50 in assay [1] was under 3980 nM; in assay [2], under 398 nM; in assay [3] it was under 200 nM; in assay [4], under 126 nM; in assay [5], under 794 nM.

As for `CCCCC[C@H](CN(O)C=O)C(=O)NCNC(=O)c1ccc(-c2ccc(O)c(C(=O)O)c2)o1`, the IC50 in assay [1] is under 3980 nM; in assay [2], under 398 nM; in assay [3], under 200 nM; in assay [4] it was under 126 nM; in assay [5], under 794 nM.

In the case of `CCCCC[C@@H](C(=O)NCNC(=O)c1ccc(-c2cc(O)cc(OCC)c2)o1)[C@@H](CC)N(O)C=O`, the IC50 in assay [1] was under 3980 nM; in assay [2], under 398 nM; in assay [3], under 200 nM; in assay [4] it was under 126 nM; in assay [5], under 794 nM.

Turning to `CCCCC[C@H](CN(O)C=O)C(=O)NCNC(=O)c1ccc(-c2cccc(C(C)C(=O)O)c2)o1` (stereo not given in full), the half-inhibitory concentration (IC50) in assay [1] was under 3980 nM; in assay [2], under 398 nM; in assay [3] it was under 200 nM; in assay [4], under 126 nM; in assay [5] it was under 794 nM.

`CCCCC[C@H](CN(O)C=O)C(=O)NCNC(=O)c1ccc(-c2ccc(N)c(C(=O)O)c2)o1`: the IC50 was under 3980 nM in assay [1]; under 398 nM in assay [2]; under 200 nM in assay [3]; under 126 nM in assay [4]; under 794 nM in assay [5].

In the case of `CCCCC[C@@H](C(=O)NCNC(=O)c1ccc(-c2cc(OCC)cc(C(=O)NC(CO)(CO)CO)c2)o1)[C@@H](CC)N(O)C=O`, the IC50 in assay [1] was under 3980 nM; in assay [2], under 398 nM; in assay [3], under 200 nM; in assay [4] it was under 126 nM; in assay [5], under 794 nM.

With `CCCCC[C@H](CN(O)C=O)C(=O)NCNC(=O)c1ccc(-c2cccc(P(C)(=O)O)c2)o1`, the IC50 in assay [1] is under 3980 nM; in assay [2], under 398 nM; in assay [3], under 200 nM; in assay [4], under 126 nM; in assay [5], under 794 nM.

Take `CCCCC[C@@H](C(=O)NCNC(=O)c1ccc(-c2cc(OCC)cc(C(=O)N[C@H](CC(=O)O)C(=O)O)c2)o1)[C@@H](CC)N(O)C=O`: the IC50 in assay [1] is under 3980 nM; in assay [2], under 398 nM; in assay [3], under 200 nM; in assay [4], under 126 nM; in assay [5], under 794 nM.

As a reminder, the IC50 is the concentration at which inhibition is half-maximal.
